Measured values from patent publication US20060160894A1, “Benzamides as ppar modulators” (LABORATORIOS S.A.L.V.A.T.,S.A., priority 2003, published 2006).

How the values were obtained:
GST-hPPARγ2 = target: T1, GST-hPPARγ2 (Homo sapiens, UniProt P37231); assay: Assay of binding to the PPARγ2 ([3H]BRL-49853 displacement); settings: Table 19; GST-hPPARγ2, [3H]BRL-49853 100 nM; read-out: Affinity PPARγ(1)
T1 construct: the complete cDNA of the […] human PPARs were cloned into pGEX4T2; made in house; host or cells: Escherichia coli BL21 (DE3)
T1 sequence (P37231 1-505): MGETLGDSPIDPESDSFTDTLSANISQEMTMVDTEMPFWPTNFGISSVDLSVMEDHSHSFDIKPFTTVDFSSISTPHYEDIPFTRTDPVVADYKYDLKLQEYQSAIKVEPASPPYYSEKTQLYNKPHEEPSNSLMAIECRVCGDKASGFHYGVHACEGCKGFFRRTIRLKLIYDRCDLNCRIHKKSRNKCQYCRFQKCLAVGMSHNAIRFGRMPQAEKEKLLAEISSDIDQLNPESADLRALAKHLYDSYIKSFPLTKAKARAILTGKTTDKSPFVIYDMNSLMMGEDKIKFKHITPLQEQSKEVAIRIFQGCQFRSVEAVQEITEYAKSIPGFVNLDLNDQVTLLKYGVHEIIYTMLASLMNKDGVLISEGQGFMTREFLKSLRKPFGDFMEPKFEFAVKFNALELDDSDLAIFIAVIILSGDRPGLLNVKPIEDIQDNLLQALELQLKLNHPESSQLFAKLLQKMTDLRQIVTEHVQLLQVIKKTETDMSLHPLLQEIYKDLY
Protocol: Assay of Binding to the PPARγ2
The cDNA encoding for the open reading frame of the hPPARγ2 is amplified by PCR (polymerase chain reaction) and inserted in the plasmid pGEX-4T-2.
The reaction mixture was transferred to a Multiscreen Durapore (Millipore) microplate containing glutathione-Sepharose 4B in every well. The reaction mixture was left to incubate with the resin during 10 min, and then centrifuged at 735 g during 2 min. To dissociate the receptor bound to the resin, reduced glutathione 10 mM is added and incubated during 10 min. The receptor was eluted by centrifugation. Then, 800 μL of scintillation liquid were added to the elution and the contained radioactivity was quantified by liquid scintillation spectroscopy (Microbeta Wallac, Perkin Elmer).

PPARγ LBD = target: T2, PPARγ LBD (Homo sapiens, UniProt P37231); assay: LBD-hPPARs transactivation assay (GAL4-LBD luciferase reporter in COS-7 cells); format: cell-based; settings: 48 h
T2 construct: expressed in transfected cells; host or cells: COS-7
T2 sequence (P37231 238-503 limits assumed): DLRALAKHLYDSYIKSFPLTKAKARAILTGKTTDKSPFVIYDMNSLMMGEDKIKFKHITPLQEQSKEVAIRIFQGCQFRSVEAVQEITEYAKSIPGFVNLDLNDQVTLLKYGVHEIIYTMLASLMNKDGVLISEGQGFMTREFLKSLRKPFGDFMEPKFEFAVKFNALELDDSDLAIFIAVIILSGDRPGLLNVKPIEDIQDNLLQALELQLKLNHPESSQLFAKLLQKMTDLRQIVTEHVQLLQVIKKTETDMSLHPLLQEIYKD
Text: LBD-hPPARs Transactivation Assay
COS-7 cells were cultivated in 24-well plates and transfected with the pFACMV plasmids that encode the chimeric proteins containing the GAL4 DNA binding domain fused to the PPARγ LBD. The reporter plasmid for the foregoing constructions was pFR-Luc, which contains five repetitions of the GAL4-response element in front of a promoter that controls the transcription of the luciferase gene. Lipofectamine was used as a transfection agent.
The plasmids of the chimeric receptors and the reporter gene were inserted in the cells by transitory transfection in COS-7 cells in culture.

| Structure (SMILES) | Ki (GST-hPPARγ2) | Functional activity PPARγ (PPARγ LBD) |
| --- | --- | --- |
| COC(=O)[C@H](Cc1ccc(OCc2ccccc2)cc1)NC(=O)c1ccc(OCc2ccccc2Cl)cc1 [Example 20, (2S)-3-(4-Benzyloxyphenyl)-2-[4-(2-chlorobenzyloxy)benzoylamino]propionic acid methyl ester] | < 1000 nM | Partial agonist |
| COC(=O)[C@H](Cc1ccc(OCc2ccccc2)cc1)NC(=O)c1ccc(OCc2cccc(Cl)c2)cc1 [Example 21, (2S)-3-(4-Benzyloxyphenyl)-2-[4-(3-chlorobenzyloxy)benzoylamino]propionic acid methyl ester] | < 1000 nM | Partial agonist |
| COC(=O)[C@H](Cc1ccc(OCc2ccccc2)cc1)NC(=O)c1ccc(OCc2ccccc2C)cc1 [Example 27, (2S)-3-(4-Benzyloxyphenyl)-2-[4-(2-methylbenzyloxy)benzoylamino]propionic acid methyl ester] | < 1000 nM | Antagonist |
| COC(=O)[C@H](Cc1ccc(OCc2ccccc2)cc1)NC(=O)c1ccc(OCCOc2nc3ccccc3nc2C)cc1 [Example 95, (2S)-3-(4-Benzyloxyphenyl)-2-{4-[2-(3-methylquinoxalin-2-yloxy)ethoxy]benzoylamino}propionic acid methyl ester] | < 1000 nM | Agonist |
| COC(=O)[C@H](Cc1ccc(OCc2ccccc2)cc1)NC(=O)c1ccc(OCCOc2cccc3cccnc23)cc1 [Example 98, (2S)-3-(4-Benzyloxyphenyl)-2-{4-[2-(quinolin-8-yloxy)ethoxy]-benzoylamino}propionic acid methyl ester] | < 1000 nM | Antagonist |
| O=C(N[C@@H](Cc1ccc(OCc2ccccc2)cc1)C(=O)O)c1ccc(OCc2ccccc2)cc1 [Example 129, (2S)-2-(4-Benzyloxybenzoylamino)-3-(4-benzyloxyphenyl)propionic acid] | < 1000 nM | Partial agonist |
| O=C(N[C@H](Cc1c[nH]c2ccccc12)C(=O)O)c1ccc(OCCN(Cc2ccccc2)Cc2ccccc2)cc1 [Example 131, (2R)-2-[4-(2-Dibenzylaminoethoxy)benzoylamino]-3-(1H-indol-3-yl)propionic acid] | 1000 to 3000 nM | Partial agonist |
| O=C(NC(Cc1ccc(-c2ccccc2)cc1)C(=O)O)c1ccc(OCCN(Cc2ccccc2)Cc2ccccc2)cc1 (centres unmarked) [Example 136, 3-Biphenyl-4-yl-2-[4-(2-dibenzylaminoethoxy)benzoylamino]propionic acid] | 1000 to 3000 nM | Antagonist |
| O=C(NC(Cc1cccc(Oc2ccccc2)c1)C(=O)O)c1ccc(OCCN(Cc2ccccc2)Cc2ccccc2)cc1 (centres unmarked) [Example 141, 2-[4-(2-Dibenzylaminoethoxy)benzoylamino]-3-(3-phenoxyphenyl)propionic acid] | 1000 to 3000 nM | Antagonist |
| O=C(NC(Cc1c[nH]c2ccc(Br)cc12)C(=O)O)c1ccc(OCCN(Cc2ccccc2)Cc2ccccc2)cc1 (centres unmarked) [Example 142, 3-(5-Bromo-1H-indol-3-yl)-2-[4-(2-dibenzylaminoethoxy)benzoylamino]propionic acid] | 1000 to 3000 nM | Antagonist |
| O=C(N[C@@H](Cc1ccc(OCc2ccccc2)cc1)C(=O)O)c1cccc(OCc2cccc(OCc3ccccc3)c2)c1 [Example 145, (2S)-2-[3-(3-Benzyloxybenzyloxy)benzoylamino]-3-(4-benzyloxyphenyl)propionic acid] | 1000 to 3000 nM | Antagonist |
| O=C(O)CN(Cc1cccc(Oc2ccccc2)c1)C(=O)c1ccc(OCCN(Cc2ccccc2)Cc2ccccc2)cc1 [Example 146, {[4-(2-Dibenzylaminoethoxy)benzoyl]-(3-phenoxybenzyl)amino}acetic acid] | 1000 to 3000 nM | Antagonist |
| O=C(N[C@@H](Cc1ccc(OCc2ccccc2)cc1)C(=O)O)c1ccc(OCCCc2ccccc2)cc1 [Example 153, (2S)-3-(4-Benzyloxyphenyl)-2-[4-(3-phenylpropoxy)benzoylamino]propionic acid] | 1000 to 3000 nM | Partial agonist |
| Cc1nc2ccccc2nc1OCCOc1ccc(C(=O)N[C@@H](Cc2ccc(OCc3ccccc3)cc2)C(=O)O)cc1 [Example 160, (2S)-3-(4-Benzyloxyphenyl)-2-{4-[2-(3-methylquinoxalin-2-yloxy)ethoxy]benzoylamino}propionic acid] | > 3000 nM | Partial agonist |
| O=C(N[C@@H](Cc1ccc(OCc2ccccc2)cc1)C(=O)O)c1ccc(OCCOc2cccc(Br)c2)cc1 [Example 161, (2S)-3-(4-Benzyloxyphenyl)-2-{4-[2-(3-bromophenoxy)ethoxy]benzoylamino}propionic acid] | 1000 to 3000 nM | Antagonist |
| O=C(O)CCN(Cc1cccc(OCc2ccccc2)c1)C(=O)c1ccc(OCCN(Cc2ccccc2)Cc2ccccc2)cc1 [Example 162, 3-{(3-Benzyloxybenzyl)-[4-(2-dibenzylaminoethoxy)benzoyl]amino}propionic acid] | < 1000 nM | Antagonist |
| O=C(O)CCN(Cc1cccc(OCc2ccccc2)c1)C(=O)c1cccc(OCCN(Cc2ccccc2)Cc2ccccc2)c1 [Example 163, 3-{(3-Benzyloxybenzyl)-[3-(2-dibenzylaminoethoxy)benzoyl]amino}propionic acid] | < 1000 nM | Antagonist |
| O=C(O)CCN(Cc1ccc(OCc2ccccc2)cc1)C(=O)c1cccc(OCCN(Cc2ccccc2)Cc2ccccc2)c1 [Example 164, 3-{(4-Benzyloxybenzyl)-[3-(2-dibenzylaminoethoxy)benzoyl]amino}propionic acid] | 1000 to 3000 nM | Antagonist |
| Cc1nc2ccccc2nc1OCCOc1ccc(C(=O)N(CCC(=O)O)Cc2cccc(OCc3ccccc3)c2)cc1 [Example 170, 3-{(3-Benzyloxybenzyl)-{4-[2-(3-methylquinoxalin-2-yloxy)ethoxy]benzoyl}amino}propionic acid] | 1000 to 3000 nM | Antagonist |
| O=C(O)CCN(Cc1ccc(OCc2ccccc2)cc1)C(=O)c1ccc(OCc2cccc(OCc3ccccc3)c2)cc1 [Example 176, 3-{(4-Benzyloxybenzyl)-[4-(3-benzyloxybenzyloxy)benzoyl]amino}propionic acid] | < 1000 nM | Antagonist |
| Cc1nc2ccccc2nc1OCCOc1cccc(C(=O)N[C@@H](Cc2ccc(OCc3ccccc3)cc2)C(=O)O)c1 [Example 180, (2S)-3-(4-Benzyloxyphenyl)-2-{3-[2-(3-methylquinoxalin-2-yloxy)ethoxy]benzoylamino}propionic acid] | < 1000 nM | Partial agonist |
| O=C(N[C@@H](Cc1ccc(OCc2ccccc2)cc1)C(=O)O)c1ccc(OCc2ccc(OCc3ccccc3)cc2)cc1 [Example 183, (2S)-2-[4-(4-Benzyloxybenzyloxy)benzoylamino]-3-(4-benzyloxyphenyl)propionic acid] | < 1000 nM | Partial agonist |
| O=C(N[C@@H](Cc1ccc(OCc2ccccc2)cc1)C(=O)O)c1cccc(OCc2ccc(OCc3ccccc3)cc2)c1 [Example 185, (2S)-2-[3-(4-Benzyloxybenzyloxy)benzoylamino]-3-(4-benzyloxyphenyl)propionic acid] | < 1000 nM | Partial agonist |
| O=C(N[C@@H](Cc1ccc(OCc2ccccc2)cc1)C(=O)O)c1cccc(OCc2ccc(-c3ccccc3)cc2)c1 [Example 187, (2S)-3-(4-Benzyloxyphenyl)-2-[3-(biphenyl-4-ylmethoxy)benzoylamino]propionic acid] | < 1000 nM | Agonist |
| O=C(N[C@@H](Cc1ccc(OCc2ccccc2)cc1)C(=O)O)c1cccc(OCc2cccc(Oc3ccccc3)c2)c1 [Example 188, (2S)-3-(4-Benzyloxyphenyl)-2-[3-(3-phenoxybenzyloxy)benzoylamino]propionic acid] | < 1000 nM | Partial agonist |
